Assay results as given in US6737383B1, “Herbicidal oxadiazolidines” (priority 1999, dated 2004).

Experiments:
[1] = test system: duck salad; experiment: Test B flood test duck salad; type: in vivo, Heteranthera limosa
Summary of the method: (§1)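 Each value is a visual injury score relative to controls, with 10 meaning complete control and 0 no effect. Evaluation took place twelve to sixteen days after the 2-leaf-stage plants were treated and kept in the greenhouse.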

[2] = test system: bamyardgrass; experiment: Test B flood test barnyardgrass; type: in vivo, Echinochloa crus-galli
Summary of the method: as §1

[3] = test system: crabgrass; experiment: Test B pre/postemergence crabgrass; type: in vivo, Digitaria sanguinalis
Summary of the method: (§2)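 Herbicidal effect was estimated by eye on a ten-point control scale after plants spent twelve to sixteen days in a greenhouse following soil or foliar treatment. Foliar sprays targeted plants at one to four leaves; all doses were formulated in a non-phytotoxic solvent with surfactant.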

[4] = test system: wheat; experiment: Test B pre/postemergence wheat; type: in vivo, Triticum aestivum
Summary of the method: as §2

[5] = test system: wild oat; experiment: Test B pre/postemergence wild oat; type: in vivo, Avena fatua
Summary of the method: as §2

[6] = test system: pigweed; experiment: Test B pre/postemergence pigweed; type: in vivo, Amaranthus retroflexus
Summary of the method: as §2

[7] = test system: smallflower flatsedge; experiment: Test B flood test smallflower flatsedge; type: in vivo, Cyperus difformis
Summary of the method: as §1

[8] = test system: rice; experiment: Test B flood test rice; type: in vivo, Oryza sativa
Summary of the method: as §1

[9] = test system: rape; experiment: Test B pre/postemergence rape; type: in vivo, Brassica napus
Summary of the method: as §2

[10] = test system: purple nutsedge; experiment: Test B pre/postemergence purple nutsedge; type: in vivo, Cyperus rotundus
Summary of the method: as §2

[11] = test system: sugar beet; experiment: Test B pre/postemergence sugar beet; type: in vivo, Beta vulgaris
Summary of the method: as §2

[12] = test system: giant foxtail; experiment: Test B pre/postemergence giant foxtail; type: in vivo, Setaria faberii
Summary of the method: as §2

[13] = test system: corn; experiment: Test B pre/postemergence corn; type: in vivo, Zea mays
Summary of the method: as §2

[14] = test system: morningglory; experiment: Test B pre/postemergence morningglory; type: in vivo, Ipomoea hederacea
Summary of the method: as §2

[15] = test system: cocklebur; experiment: Test B pre/postemergence cocklebur; type: in vivo, Xanthium strumarium
Summary of the method: as §2

[16] = test system: surinam grass; experiment: Test B pre/postemergence surinam grass; type: in vivo, Brachiaria decumbens
Summary of the method: as §2

[17] = Rate 62 g/ha, headed Pre-emergence (flood test species), scale 0 to 10 (0 no effect, 10 complete control)
[18] = Rate 125 g/ha, Pre-emergence, flood test species, scale 0 to 10 where 0 is no effect and 10 is complete control
[19] = Rate 250 g/ha, Pre-emergence, flood-test species, scale 0 to 10, 0 is no effect, 10 is complete control
[20] = Rate 500 g/ha, Pre-emergence, flood test species, scale 0 to 10 (0 no effect, 10 complete control)
[21] = Preemergence, Rate 62 g/ha, scale of 0 to 10 where 0 is no effect and 10 is complete control
[22] = Preemergence, Rate 250 g/ha, scale of 0 to 10 where 0 is no effect and 10 is complete control
[23] = Preemergence, Rate 500 g/ha, scale of 0 to 10 where 0 is no effect and 10 is complete control
[24] = Rate 125 g/ha, Postemergence, scale of 0 to 10 where 0 is no effect and 10 is complete control
[25] = Rate 125 g/ha, Preemergence, scale of 0 to 10 where 0 is no effect and 10 is complete control
[26] = Rate 250 g/ha, Postemergence, scale of 0 to 10 where 0 is no effect and 10 is complete control
[27] = Rate 500 g/ha, Postemergence, scale 0 to 10, 0 no effect, 10 complete control
[28] = Rate 62 g/ha, Postemergence, scale of 0 to 10 where 0 is no effect and 10 is complete control

With `CC(C)N(C(=O)n1oc(=O)n(-c2ccsc2)c1=O)c1ccc(F)cc1` [Compound 272] the “Ducksalad plant response rating” value [1, 17] was 0, the “Ducksalad plant response rating” value [1, 18] was 0 and the “Ducksalad plant response rating” value [1, 19] was 0. The “Ducksalad plant response rating” value [1, 20] was 0, the “Barnyardgrass plant response rating” value [2, 17] was 0 and the “Barnyardgrass plant response rating” value [2, 18] was 0. The “Barnyardgrass plant response rating” value [2, 19] was 0, the “Barnyardgrass plant response rating” value [2, 20] was 0 and the “Crabgrass plant response rating” value [3, 21] was 0. The “Crabgrass plant response rating” value [3, 22] was 0, the “Plant response rating, Crabgrass” value [3, 23] was 2 and the “Crabgrass plant response rating” value [3, 24] was 0. For the same compound, the “Crabgrass plant response rating” value [3, 25] was 0, the “Plant response rating, Crabgrass” value [3, 26] was 0 and the “Crabgrass plant response rating” value [3, 27] was 0. For the same compound, the “Wheat plant response rating” value [4, 21] was 0, the “Wheat plant response rating” value [4, 22] was 0 and the “Plant response rating, Wheat” value [4, 23] was 0. The “Wheat plant response rating” value [4, 24] was 0, the “Wheat plant response rating” value [4, 25] was 0 and the “Plant response rating, Wheat” value [4, 26] was 0. For the same compound, the “Wheat plant response rating” value [4, 27] was 0, the “Wild oats plant response rating” value [5, 21] was 0 and the “Wild oats plant response rating” value [5, 22] was 0. The “Plant response rating, Wild oats” value [5, 23] was 2, the “Wild oats plant response rating” value [5, 24] was 0 and the “Plant response rating, Wild oats” value [5, 26] was 0. For the same compound, the “Wild oats plant response rating” value [5, 27] was 0, the “Redroot pigweed plant response rating” value [6, 21] was 0 and the “Redroot pigweed plant response rating” value [6, 22] was 0. The “Plant response rating, Redroot pigweed” value [6, 23] was 3, the “Redroot pigweed plant response rating” value [6, 24] was 0 and the “Redroot pigweed plant response rating” value [6, 25] was 0. For the same compound, the “Plant response rating, Redroot pigweed” value [6, 26] was 2, the “Redroot pigweed plant response rating” value [6, 27] was 4 and the “S. Flatsedge plant response rating” value [7, 17] was 0. For the same compound, the “S. Flatsedge plant response rating” value [7, 18] was 0, the “S. Flatsedge plant response rating” value [7, 19] was 0 and the “S. Flatsedge plant response rating” value [7, 20] was 0. The “Rice plant response rating” value [8, 17] was 0, the “Rice plant response rating” value [8, 18] was 0 and the “Rice plant response rating” value [8, 19] was 0. The “Rice plant response rating” value [8, 20] was 0, the “Rape plant response rating” value [9, 21] was 0 and the “Rape plant response rating” value [9, 22] was 0. The “Plant response rating, Rape” value [9, 23] was 0, the “Rape plant response rating” value [9, 24] was 0 and the “Rape plant response rating” value [9, 25] was 0. The “Plant response rating, Rape” value [9, 26] was 0, the “Rape plant response rating” value [9, 27] was 0 and the “Nutsedge plant response rating” value [10, 21] was 0. For the same compound, the “Nutsedge plant response rating” value [10, 22] was 0, the “Plant response rating, Nutsedge” value [10, 23] was 0 and the “Nutsedge plant response rating” value [10, 24] was 0. The “Nutsedge plant response rating” value [10, 25] was 0, the “Plant response rating, Nutsedge” value [10, 26] was 0 and the “Nutsedge plant response rating” value [10, 27] was 0. The “Sugarbeets plant response rating” value [11, 21] was 0, the “Sugarbeets plant response rating” value [11, 22] was 0 and the “Plant response rating, Sugarbeets” value [11, 23] was 0. The “Sugarbeets plant response rating” value [11, 24] was 0, the “Sugarbeets plant response rating” value [11, 25] was 0 and the “Plant response rating, Sugarbeets” value [11, 26] was 0. The “Sugarbeets plant response rating” value [11, 27] was 0, the “Giant foxtail plant response rating” value [12, 21] was 2 and the “Giant foxtail plant response rating” value [12, 22] was 6. The “Plant response rating, Giant foxtail” value [12, 23] was 6, the “Giant foxtail plant response rating” value [12, 24] was 0 and the “Giant foxtail plant response rating” value [12, 25] was 5. The “Plant response rating, Giant foxtail” value [12, 26] was 0, the “Giant foxtail plant response rating” value [12, 27] was 0 and the “Corn plant response rating” value [13, 21] was 0. For the same compound, the “Corn plant response rating” value [13, 22] was 0, the “Plant response rating, Corn” value [13, 23] was 0 and the “Corn plant response rating” value [13, 28] was 0. For the same compound, the “Corn plant response rating” value [13, 24] was 0, the “Corn plant response rating” value [13, 25] was 0 and the “Plant response rating, Corn” value [13, 26] was 0. For the same compound, the “Corn plant response rating” value [13, 27] was 0, the “Morningglory plant response rating” value [14, 21] was 0 and the “Morningglory plant response rating” value [14, 22] was 0. For the same compound, the “Plant response rating, Morningglory” value [14, 23] was 0, the “Morningglory plant response rating” value [14, 24] was 1 and the “Morningglory plant response rating” value [14, 25] was 0. For the same compound, the “Plant response rating, Morningglory” value [14, 26] was 1, the “Morningglory plant response rating” value [14, 27] was 7 and the “Cocklebur plant response rating” value [15, 21] was 0. The “Cocklebur plant response rating” value [15, 22] was 0, the “Plant response rating, Cocklebur” value [15, 23] was 0 and the “Cocklebur plant response rating” value [15, 28] was 0. The “Cocklebur plant response rating” value [15, 24] was 0, the “Cocklebur plant response rating” value [15, 25] was 0 and the “Plant response rating, Cocklebur” value [15, 26] was 1. The “Cocklebur plant response rating” value [15, 27] was 1, the “B. signalgrass plant response rating” value [16, 21] was 0 and the “B. signalgrass plant response rating” value [16, 22] was 0. The “Plant response rating, B. signalgrass” value [16, 23] was 0, the “B. signalgrass plant response rating” value [16, 28] was 0 and the “B. signalgrass plant response rating” value [16, 24] was 0. The “B. signalgrass plant response rating” value [16, 25] was 0, the “Plant response rating, B. signalgrass” value [16, 26] was 0 and the “B. signalgrass plant response rating” value [16, 27] was 0.
